These results are taken from ChEMBL document CHEMBL5325479, “Synthesis and biological evaluation of sulfonylpyridine derivatives as potential anti-chlamydia agents” (Bioorg Med Chem, 2023).

Values after ≈ are worked out from the molar mass of the structure shown. Active and inactive are the calls of the source. No cut-off for these calls is given here.

One series deals with Staphylococcus aureus. Nature of the series: Antibacterial activity against Staphylococcus aureus USA 300 JE2 assessed as bacterial death measured upto 256 ug/ml. In kind it is functional, organism-based. The note with it: dose <= 256.0 µg/ml.
Consider `CC(C)(C(=O)NCCCSc1ccc(Cl)cc1)S(=O)(=O)c1ccc(Br)cn1`, for which the outcome was inactive.

Another series has as its system HEp-2. Nature of the series: Cytotoxicity against human HEp-2 cells assessed as cell viability at 4 to 128 ug/ml measured after 24 hrs by XTT assay. In kind it is toxicity, cell-based. The note with it: hep-2, 24 h, dose 4-128 µg/ml.
For `CC(C)(C(=O)NCCCSc1ccc(Cl)cc1)S(=O)(=O)c1ccc(Br)cn1`, the Activity entry is on record as “Toxic”.

System in another series: not listed separately
The series is described as follows: Stability of the compound in simulated gastric fluid at pH 1.2 measured after 24 hrs by HPLC analysis. In kind it is ADME. The note with it: simulated gi fluid, pH 1.2, 24 h.
As for `CC(C)(C(=O)NCCCSc1ccc(Cl)cc1)S(=O)(=O)c1ccc(Br)cn1`, the Stability result was “Stable”.

System in a further series: not listed separately
The series is described as follows: Cytotoxicity against human HEC-1-A cells assessed as cell survival at 128 ug/ml measured after 24 hrs by XTT assay. The following applies: at 128 µg/mL, read-out: Survival. In kind it is toxicity, cell-based.
`CC(C)(C(=O)NCCCSc1ccc(Cl)cc1)S(=O)(=O)c1ccc(Br)cn1`: the viability at 24 h, 128 ug/ml worked out at 100%.

A further series deals with Chlamydia trachomatis. Nature of the series: Anti-chlamydia activity against Chlamydia trachomatis serovar L2 infected in human HEp-2 cells assessed as inhibition of inclusion growth measured treated 8 hrs POI followed measured after 16 hrs by immunofluorescence assay. In kind it is functional, organism-based. The note with it: serovar L2, HEp-2.
With `CC(C)(C(=O)NCCCSc1ccccc1)S(=O)(=O)c1ccc(C(F)(F)F)cn1`, the 50% inhibitory concentration (IC50) was 31.4 µg/mL (≈ 70.3 µM).

As to `Cc1ccccc1OCCNC(=O)C(C)(C)S(=O)(=O)c1ccc(C(F)(F)F)cn1`, the IC50 was 28.9 µg/mL (≈ 67.2 µM).

For the compound `Cc1ccccc1SCCCNC(=O)C(C)(C)S(=O)(=O)c1ccc(C(F)(F)F)cn1`, the IC50 was 32.5 µg/mL (≈ 70.7 µM).

In the case of `CC(C)(C(=O)NCCSc1cccc(Cl)c1)S(=O)(=O)c1ccc(C(F)(F)F)cn1`, the IC50 stood at 17.9 µg/mL (≈ 38.3 µM).

On to `Cc1ccc(SCCNC(=O)C(C)(C)S(=O)(=O)c2ccc(C(F)(F)F)cn2)cc1`, for which the IC50 turned out to be 23.5 µg/mL (≈ 52.6 µM).

On to `Cc1ccccc1SCCNC(=O)C(C)(C)S(=O)(=O)c1ccc(C(F)(F)F)cn1`, for which the IC50 is 17.8 µg/mL (≈ 39.8 µM).

As to `Cc1ccc(SCCCNC(=O)C(C)(C)S(=O)(=O)c2ccc(Br)cn2)cc1`, the IC50 turned out to be 16.1 µg/mL (≈ 34.2 µM).

With `CC(C)(C(=O)NCCCSc1cccc(Cl)c1)S(=O)(=O)c1ccc(C(F)(F)F)cn1`, the IC50 stood at 14.8 µg/mL (≈ 30.7 µM).

As to `CC(C)(C(=O)NCCCSc1ccc(Cl)cc1)S(=O)(=O)c1ccc(Br)cn1`, the IC50 came to 2.33 µg/mL (≈ 4.74 µM).

`COc1ccc(OCCNC(=O)C(C)(C)S(=O)(=O)c2ccc(C(F)(F)F)cn2)cc1`: the IC50 amounted to 42.2 µg/mL (≈ 94.4 µM).

`Cc1ccc(OCCNC(=O)C(C)(C)S(=O)(=O)c2ccc(C(F)(F)F)cn2)cc1`: the IC50 worked out at 29.8 µg/mL (≈ 69.3 µM).

For the compound `Cc1ccccc1OCCNC(=O)C(C)(C)S(=O)(=O)c1ccc(Br)cn1`, the IC50 amounted to 18.3 µg/mL (≈ 41.5 µM).

In the case of `CC(C)(C(=O)NCCCSc1ccc(Cl)cc1)S(=O)(=O)c1ccc(C(F)(F)F)cn1`, the IC50 was determined as 3.88 µg/mL (≈ 8.07 µM).

On to `CC(C)(C(=O)NCCNc1ccccc1)S(=O)(=O)c1ccc(C(F)(F)F)cn1`, for which the IC50 was determined as 14.2 µg/mL (≈ 34.3 µM).

As for `CC(C)(C(=O)NCCCOc1ccc(Cl)cc1)S(=O)(=O)c1ccc(C(F)(F)F)cn1`, the IC50 was found to be 26.1 µg/mL (≈ 56.2 µM).

As to `COc1ccccc1OCCNC(=O)C(C)(C)S(=O)(=O)c1ccc(C(F)(F)F)cn1`, the IC50 was found to be 39.8 µg/mL (≈ 89.2 µM).

In the case of `Cc1ccccc1OCCCNC(=O)C(C)(C)S(=O)(=O)c1ccc(C(F)(F)F)cn1`, the IC50 came out at 20.4 µg/mL (≈ 46 µM).

In the case of `Cc1ccccc1OCCCNC(=O)C(C)(C)S(=O)(=O)c1ccc(Br)cn1`, the IC50 turned out to be 3.47 µg/mL (≈ 7.62 µM).

As for `CC(C)(C(=O)NCCNc1ccccc1)S(=O)(=O)c1ccc(Br)cn1`, the IC50 was determined as 11.7 µg/mL (≈ 27.3 µM).

The next series relates to Escherichia coli. The series is described as follows: Antibacterial activity against Escherichia coli K12 assessed as bacterial death measured upto 256 ug/ml. In kind it is functional, organism-based. The following applies: dose <= 256.0 µg/ml.
Regarding `CC(C)(C(=O)NCCCSc1ccc(Cl)cc1)S(=O)(=O)c1ccc(Br)cn1`, the outcome was inactive.

For the next series, the system named is Chlamydia trachomatis. The series is described as follows: Anti-chlamydia activity against Chlamydia trachomatis serovar L2 infected in human HEp-2 cells assessed as inhibition of inclusion growth measured at 0.78 to 50 ug/ml treated 8 hrs POI followed measured after 16 hrs by immunofluorescence assay. In kind it is functional, organism-based. The following applies: dose 0.78-50 µg/ml.
Regarding `CN(CCSc1ccc(Cl)cc1)C(=O)C(C)(C)S(=O)(=O)c1ccc(C(F)(F)F)cn1`, the inhibition entry was “inactive”.

`COc1ccccc1OCCCNC(=O)C(C)(C)S(=O)(=O)c1ccc(C(F)(F)F)cn1`: the inhibition entry is “inactive”.

For `CC(=O)N(CCNC(=O)C(C)(C)S(=O)(=O)c1ccc(C(F)(F)F)cn1)c1ccccc1`, the inhibition entry was “inactive”.

With `CC(C)(C(=O)NCCCC1=NC2C=CC=CC2=N1)S(=O)(=O)c1ccc(C(F)(F)F)cn1` (stereo unspecified), the inhibition result was “inactive”.

With `CC(C)(C(=O)NCCOc1ccc([N+](=O)[O-])cc1)S(=O)(=O)c1ccc(C(F)(F)F)cn1`, the inhibition result was “inactive”.

`Cc1ccc(OCCNC(=O)C(C)(C)S(=O)(=O)c2ccc(Br)cn2)cc1`: the inhibition result was “inactive”.

As for `CC(C)(C(=O)NCCc1ccncc1)S(=O)(=O)c1ccc(C(F)(F)F)cn1`, the inhibition entry was “inactive”.
